Reference: ChEMBL document CHEMBL6074705, “Novel Triazines as NLRP3 Inhibitors for Treating Multiple Diseases” (ACS Med Chem Lett, 2024)

Experiment: Inhibition of NLRP3 inflammasome activation in PMA-treated human THP-1 cells assessed as ASC-SPECK formation preincubated for 1 hr followed by gramicidin addition and measured after 3 hrs by immunofluorescence staining based assay
Format: cell-based

SMILES	EC50 [nM]
CCN1CC[C@@]2(C)CCN(c3nnc(-c4ccc(C(F)(F)F)cc4O)c(C)n3)[C@@]2(C)C1	5
Cc1cc(O)c(-c2nnc(N3CC[C@]4(C)CCN(C)C[C@]34C)nc2C)c(F)c1	5
Cc1nc(N2CC[C@]3(C)CCN(C)C[C@]23C)nnc1-c1ccc(Cl)cc1O	4

Further molecules by falling EC50, results first:

EC50 [nM]	SMILES
7	Cc1nc(N2CC[C@]3(C)CCN(C)C[C@]23C)nnc1-c1ccc(C2CC2)cc1O
5	Cc1nc(N2CC[C@]3(C)CCN(C)C[C@]23C)nnc1-c1ccc(C(F)(F)F)cc1O
5	Cc1nc(N2CC[C@]3(C)CCN(C)C[C@]23C)nnc1-c1ccc(OC(F)(F)F)cc1O
